# Test results as given in patent publication EP0433683A2, “Use of benzothiazepines as potentiators of anti-cancer drugs” (MARION MERRELL DOW INC., priority 1989, dated 1991).
# Where a name gives a salt, the structure may show the parent alone.
# How the values were obtained:
# [1] = Anticonvulsant activity (AcA), method of Zobrist et al.; format: in vivo; set-up: key: 0 being no observed activity; 5 being the most active; settings: scale from 0 to 5
# Procedure: Anticonvulsant activity (AcA) was determined generally by the method of Zobrist et al., European Patent Application EP.... (our ref.: A 634 EP) entitled, "BENZOTHZAZEPINE ANTI-SEIZURE METHOD," and filed on even date herewith; see also US-A-4,879,289.
# [2] = Anti-depressant activity (AdA), visual observation; format: in vivo; settings: scale from 0 to 5
# Procedure: Anti-depressant activity (AdA) was determined by visual observation.
# [3] = Cardiovascular activity (CvA), isolated tissue; settings: scale from 0 to 5
# Procedure: Cardovascular activity (CvA) was determined by the use of isolated tissue.
# VCR-resistant cell line = settings: nontoxic concentration of diltiazem hydrochloride; cited from earlier work
SMILES,AcA [1],AdA [2],CvA [3],increase in vincristine (VCR) cytotoxicity (VCR-resistant cell line) [fold]
"COc1ccc([C@@H]2Sc3ccccc3N(CCN(C)C)C(=O)[C@@H]2OC(C)=O)cc1 [Diltiazem, d-cis-5-[2-(dimethylamino)ethyl]-2,3-dihydro-3-hydroxy-2-(4-methoxyphenyl)-1,5-benzothiazepin-4(5H)-one acetate (ester), reference compound]",5,2,,
CCCCC(=O)O[C@H]1C(=O)N(CCN(C)C)c2ccccc2S[C@H]1c1ccc(OC)cc1.O=C(O)/C=C/C(=O)O [d-cis-ML1013],0,,1,
COc1ccc([C@@H]2Sc3ccccc3N(CCN(C(C)C)C(C)C)C(=O)[C@@H]2OC(C)=O)cc1.Cl [d-cis-ML1016],5,1,2,
COc1ccc([C@H]2Sc3ccccc3N(CCN(C)C)C(=O)[C@H]2OC(C)=O)cc1 [l-cis-DTZ],3,,,
"COc1ccc([C@@H]2Sc3ccccc3N(CCN(C)C)C(=O)[C@@H]2OC(C)=O)cc1 [diltiazem hydrochloride, Diltiazem hydrochloride]",,,,54
COc1ccc([C@@H]2Sc3ccccc3N(CCN(C)C)C(=O)[C@@H]2OC(=O)CC(C)C)cc1.O=C(O)/C=C/C(=O)O [d-cis-ML1014],1,,1,
